{
  "source": "patent US8143288B2",
  "about": "“Inhibitors of HCV replication” (priority 2005, dated 2012)",
  "key": {"HCV": {"system": "HCV", "settings": "HCV therapy, Poynard et al. 1998; cited from earlier work"}, "[1]": {"test": "Alamar blue cytotoxicity (CC50) in replicon cells", "format": "cell-based", "settings": "human, wild-type HCV 1b-377-neo replicon cells", "method": "(§1) At subsequent various times (typically 72 hours), 10% final volume Alamar blue (Cat#00-100, Trek Diagnostics, Cleveland, Ohio) was added to each well. The plates were returned to the incubator for 5 hours and then read in the Cytoflour (PE Biosystems) to determine Alamar blue conversion in each well as a measure of cellular toxicity. After reading the Alamar blue fluorescence following the manufacturers directions, plates were rinsed 2× with PBS and then used for FRET assay by the addition of 30 μl of the FRET peptide assay reagent (described above) per well. The plate was then placed into the Cytoflour 4000 instrument which had been set to 340 excite/490 emission, automatic mode for 20 cycles and the plate read in a kinetic mode. Typically, the signal to noise using an endpoint analysis after the reads was at least three-fold.\nCompound analysis depended upon the quantification of the relative HCV replicon inhibition and the relative cytotoxicity values. To calculate cytotoxicity values, the average alamar blue fluorescence signals from the control wells in row 11 were set as 100% non-toxic. The individual signals in each of the compound test wells were then divided by the average control signal and multiplied by 100% to determine […]. […]"}, "[2]": {"system": "HCV 1b-377-neo replicon cells", "test": "HCV replicon FRET assay", "format": "cell-based", "settings": "Hepatitis C virus"}, "HCV replicon": {"system": "HCV replicon", "test": "Combination studies in HCV replicon system (FRET, method of Chou)", "format": "cell-based", "settings": "for combination response: in combination with Example 3, replicon cells, 72 hours", "method": "Since clinical drug resistance often develops in viral infections following single-agent therapies, there is a need to assess the additive, antagonistic, or synergistic properties of combination therapies. […] Drugs were tested at eleven concentrations each, diluted in DMSO by 3-fold dilutions. The highest concentration used for the four HCV inhibitors was 0.1 μM for Example 3 and 20 μM for the three other HCV antivirals. […] The drugs were tested as monotherapies and in combination with Example 3 at various concentration ratios. Cells were exposed to compounds for 72 hours and the amount of HCV inhibition was then determined using the FRET assay. The potential cytotoxicities of these combined agents were also analyzed in parallel by Alamar blue staining. The degree of antagonism or synergy was determined over a range of drug concentrations, and the combination response curves were fit to assess the antiviral effects of the drug treatment combinations. The concentration ratios were analyzed using the method of Chou. Table 5 reports the combination indices (CI) and the asymptotic confidence intervals at the different concentration ratios. All combination indices were tested for departure from additivity using isobologram methods."}, "[3]": {"test": "Alamar blue cytotoxicity (CC50) in Y > H replicon cells", "format": "cell-based", "settings": "human", "method": "as §1\nThe assay was further adapted to accommodate titrations of compounds to determine EC50 and CC50 values.\n(§2) To determine if the Y2065H change was necessary and sufficient to confer resistance to Compound A, the single mutation was generated in the HCV 1b-377-neo replicon. […] To further verify this, colonies formed in the absence of Compound A were isolated and expanded for both the wild-type and Y2065H clones. Sensitivity of these cells to Compound A was then examined using the FRET assay."}, "[4]": {"system": "Y2065H HCV 1b-377-neo replicon cells", "test": "FRET assay on Y2065H (Y > H) replicon cells", "format": "cell-based", "settings": "for EC50: Hepatitis C virus"}, "[5]": {"system": "Y2065H HCV 1b-377-neo replicon", "test": "Colony formation, Y2065H replicon RNA in Huh-7 cells", "format": "cell-based", "settings": "Y > H RNA transfected, 2 μM Compound A, 3 weeks G418 selection", "from_the_text": "as §2"}, "[6]": {"system": "Compound A-r replicon cells", "test": "FRET assay on selected Compound A-r replicon cells", "format": "cell-based, HCV", "settings": "judged by the FRET assay; cells selected with Compound A 5-6 weeks", "method": "HCV 1b-377-neo replicon cells were plated in 100-mm plates with ˜25% confluence after 24 hour seeding. Compound A (prepared by the procedure described in WO04/014852, published Feb. 19, 2004) was added at the final concentrations of 5, 10 and 20 μM in the presence of G418. Wild type replicon cells 15 in the absence of the compound were used as a control. After 5-6 weeks, both wt replicon cells and selected cells were tested for their sensitivity to Compound A. In addition, cell lines derived from individual colonies from different concentrations of selective Compound A were also isolated, expanded and tested. In the initial test, approximately 60-fold resistance, judged by the FRET assay, was observed between wt replicon cells and selected replicon cells (designated as Compound A-r replicon cells)."}, "[7]": {"system": "wild-type HCV 1b-377-neo replicon", "test": "Colony formation, wild-type replicon RNA in Huh-7 cells", "format": "cell-based", "settings": "2 μM Compound A", "from_the_text": "as §2"}, "[8]": {"settings": "Wild-type replicon cells, FRET assay, read-out: EC50"}, "[9]": {"settings": "monotherapy, 72 hours, FRET assay, read-out: EC50 in monotherapy"}, "[10]": {"settings": "combined with Example 3, molar ratio 1:1"}, "[11]": {"settings": "combined with Example 3, molar ratio 1:2.5"}, "[12]": {"settings": "combined with Example 3, molar ratio 2.5:1"}},
  "note": "Read-outs that look alike come from different tables or passages of the source.",
  "data": [
    {"compound": "alpha-interferon and ribavirin", "values": [
      {"measurement": "sustained efficacy", "setting": "HCV", "result": "40 % of patients"}
    ]},
    {"compound": "O=C(Nc1ccc(/C=C/c2ccc(NC(=O)[C@@H]3CCCN3C(=O)Cc3ccccc3)cc2)cc1)[C@@H]1CCCN1C(=O)Cc1ccccc1", "note": "[Example 3]", "values": [
      {"measurement": "CC50 at 72 h", "setting": "[1]", "result": "> 5", "unit": "µM"},
      {"measurement": "EC50", "setting": "[2]; HCV replicon, read-out: Activity (EC50)", "result": "0.0001 to 0.09", "unit": "µM"},
      {"measurement": "EC50", "setting": "[2]; [8]", "result": "< 0.05", "unit": "µM"},
      {"measurement": "EC50", "setting": "[2]; [9]", "result": "< 0.05", "unit": "µM"},
      {"measurement": "combination response", "setting": "HCV replicon", "result": "no significant drug antagonism"},
      {"measurement": "CC50 at 72 h", "setting": "[3]", "result": "> 5", "unit": "µM"},
      {"measurement": "EC50", "setting": "[4]", "result": "> 5", "unit": "µM"},
      {"measurement": "window of resistance in Y2065H cells as compared to wild-type cells", "setting": "[4]; Y2065H vs wild-type cells", "result": "> 100", "unit": "fold"}
    ]},
    {"compound": "C=CC1CC1(NC(=O)[C@@H]1C[C@@H](Oc2cc(-c3ccccc3)nc3cc(OC)ccc23)CN1C(=O)C(NC(=O)OC(C)(C)C)C(C)(C)C)C(=O)O", "note": "(stereo partly shown) [protease inhibitor]", "values": [
      {"measurement": "EC50", "setting": "[2]; [9]", "result": 0.33, "unit": "µM"},
      {"measurement": "CI at HCV inhibition of: 75%", "setting": "HCV replicon; [10]", "result": "0.96 +/− 0.38"},
      {"measurement": "CI at HCV inhibition of: 90%", "setting": "HCV replicon; [10]", "result": "0.91 +/− 0.55"},
      {"measurement": "CI at HCV inhibition of: 95%", "setting": "HCV replicon; [10]", "result": "0.88 +/− 0.69"},
      {"measurement": "Overall Result", "setting": "HCV replicon; [10]", "result": "Additive"},
      {"measurement": "CI at HCV inhibition of: 50%", "setting": "HCV replicon; combined with Example 3, molar ratio 1:1 (first number Example 3)", "result": "1.05 +/− 0.29"},
      {"measurement": "CI at HCV inhibition of: 75%", "setting": "HCV replicon; [11]", "result": "0.78 +/− 0.22"},
      {"measurement": "CI at HCV inhibition of: 90%", "setting": "HCV replicon; [11]", "result": "0.76 +/− 0.33"},
      {"measurement": "CI at HCV inhibition of: 95%", "setting": "HCV replicon; [11]", "result": "0.75 +/− 0.43"},
      {"measurement": "Overall Result", "setting": "HCV replicon; [11]", "result": "Synergistic/Additive"},
      {"measurement": "CI at HCV inhibition of: 50%", "setting": "HCV replicon; combined with Example 3, molar ratio 1:2.5 (first number Example 3)", "result": "0.82 +/− 0.17"},
      {"measurement": "CI at HCV inhibition of: 75%", "setting": "HCV replicon; [12]", "result": "0.88 +/− 0.27"},
      {"measurement": "CI at HCV inhibition of: 90%", "setting": "HCV replicon; [12]", "result": "0.81 +/− 0.40"},
      {"measurement": "CI at HCV inhibition of: 95%", "setting": "HCV replicon; [12]", "result": "0.77 +/− 0.49"},
      {"measurement": "Overall Result", "setting": "HCV replicon; [12]", "result": "Additive"},
      {"measurement": "CI at HCV inhibition of: 50%", "setting": "HCV replicon; combined with Example 3, molar ratio 2.5:1 (first number Example 3)", "result": "0.97 +/− 0.22"},
      {"measurement": "combination response", "setting": "HCV replicon", "result": "additive response"}
    ]},
    {"compound": "C[C@H](NC(=O)OCc1ccccc1)C(=O)Nc1ccc(C2S/C(=N\\c3cccc(F)c3)N(Cc3ccco3)C2=O)cc1", "note": "(stereo partly shown) [Compound A, reference compound]", "values": [
      {"measurement": "CC50 at 72 h", "setting": "[1]", "result": "> 5", "unit": "µM"},
      {"measurement": "EC50", "setting": "[2]; [8]", "result": 1.5, "unit": "µM"},
      {"measurement": "Number of colonies", "setting": "[5]", "result": 10},
      {"measurement": "resistance between wt replicon cells and selected replicon cells", "setting": "[6]", "result": "approximately 60 fold"},
      {"measurement": "Number of colonies", "setting": "[7]; Wild-type RNA transfected, 3 weeks G418 selection", "result": 3},
      {"measurement": "reduction in colony number", "setting": "[7]; wild-type replicon RNA", "result": 95, "unit": "%"},
      {"measurement": "CC50 at 72 h", "setting": "[3]", "result": "> 5", "unit": "µM"},
      {"measurement": "EC50", "setting": "[4]", "result": "> 5", "unit": "µM"}
    ]}
  ]
}
